# Assay results from patent US20230129258A1, “HETEROTANDEM BICYCLIC PEPTIDE COMPLEXES” (BicycleTx Limited, priority 2019, published 2023).
# Entries after “also recorded” stand apart in the source; their conditions may differ. Starred links: 1 amine or outer side, 2 acyl side, 3 side chain; linkers in the order of their positions; H or OH if unused. Positions of bridges follow the written chain, without caps; N, C: chain ends. Non-standard residues stand in square brackets, D forms with d. Chains are numbered I, II in the order given. X1 = O=C(CCOCCOCCOCCN(CCOCCOCCOCCn1cc(CCC(=O)[*:2])nn1)CCOCCOCCOCCn1cc(CCC(=O)[*:3])nn1)[*:1]; TATA = O=C(CC[*:1])N1CN(C(=O)CC[*:2])CN(C(=O)CC[*:3])C1; d1Nal = N[C@H](Cc1cccc2ccccc12)C(=O)O; Hyp = O=C(O)[C@@H]1C[C@@H](O)CN1; hArg = N=C(N)NCCCC[C@H](N)C(=O)O; tBuAla = CC(C)(C)C[C@H](N)C(=O)O; Nle = CCCC[C@H](N)C(=O)O
# How the values were obtained:
# [1] = target: CD137 (Homo sapiens, UniProt Q07011); experiment: SPR (Biacore) binding to immobilized human CD137; set-up: purchased R&D systems; details: for off rate (koff) from immobilized CD137: avidity from two CD137 binding bicycles; for affinity to immobilized CD137 (human), in words: reported KD may be an overestimation
# Chain of CD137 (Q07011 24-255): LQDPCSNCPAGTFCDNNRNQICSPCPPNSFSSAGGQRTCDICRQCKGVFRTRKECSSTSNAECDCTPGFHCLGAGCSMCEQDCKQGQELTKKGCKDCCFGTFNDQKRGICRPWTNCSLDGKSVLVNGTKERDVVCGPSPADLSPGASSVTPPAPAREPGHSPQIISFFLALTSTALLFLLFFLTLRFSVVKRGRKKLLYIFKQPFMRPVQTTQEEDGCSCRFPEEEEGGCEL
# Procedure: Biacore experiments were performed to determine ka (M^−1s^−1), kd (s^−1), KD (nM) values of heterotandem peptides binding to human CD137 protein. […] The protein was desalted to remove uncoupled biotin using spin columns into PBS.
# For analysis of peptide binding, a Biacore T200 or a Biacore 3000 instrument was used with a XanTec CMD500D chip. Streptavidin was immobilized on the chip using standard amine-coupling chemistry at 25° C. with HBS-N (10 mM HEPES, 0.15 M NaCl, pH 7.4) as the running buffer. Briefly, the carboxymethyl dextran surface was activated with a 7 min injection of a 1:1 ratio of 0.4 M 1-ethyl-3-(3-dimethylaminopropyl) carbodiimide hydrochloride (EDC)/0.1 M N-hydroxy succinimide (NHS) at a flow rate of 10 μl/min. For capture of streptavidin, the protein was diluted to 0.2 mg/ml in 10 mM sodium acetate (pH 4.5) and captured by injecting 120 μl of onto the activated chip surface. Residual activated groups were blocked with a 7 min injection of 1 M ethanolamine (pH 8.5) and biotinylated CD137 captured to a level of 270-1500 RU. Buffer was changed to PBS/0.05% Tween 20 and a dilution series of the peptides was prepared in this buffer with a final DMSO concentration of 0.5%. The top peptide concentration was 500 nM with 6 further 2-fold or 3-fold dilutions. The SPR analysis was run at 25° C. at a flow rate of 90 μl/min with 60 seconds association and 900 seconds dissociation. After each cycle a regeneration step (10 μl of 10 mM glycine pH 2) was employed. Data were corrected for DMSO excluded volume effects as needed. All data were double-referenced for blank injections and reference surface using standard processing procedures and data processing and kinetic fitting were performed using Scrubber software, version 2.0c (BioLogic Software). Data were fitted using simple 1:1 binding model allowing for mass transport effects where appropriate.
# [2] = Pharmacokinetics in CD1 mice; type: in vivo, CD-1 mice
# Procedure: Serial bleeding (about 80 μL blood/time point) was performed via submandibular or saphenous vein at each time point. All blood samples were immediately transferred into prechilled microcentrifuge tubes containing 2 μL K2-EDTA (0.5M) as anti-coagulant and placed on wet ice. Blood samples were immediately processed for plasma by centrifugation at approximately 4° C., 3000 g. The precipitant including internal standard was immediately added into the plasma, mixed well and centrifuged at 12,000 rpm, 4° C. for 10 minutes. The supernatant was transferred into pre-labeled polypropylene microcentrifuge tubes, and then quick-frozen over dry ice. The samples were stored at […] or below as needed until analysis. 7.5 μL of the supernatant samples were directly injected for LC-MS/MS analysis using an Orbitrap Q Exactive in positive ion mode to determine the concentrations of analyte. Plasma concentration versus time data were analyzed by non-compartmental approaches using the Phoenix WinNonlin 6.3 software program. C0, CI, Vdss, T½, AUC(0-last), AUC(0-inf), MRT(0-last), MRT(0-inf) and graphs of plasma concentration versus time profile were reported.
# [3] = Pharmacokinetics in cynomolgus monkey; type: in vivo; details: plasma
# Procedure: Serial bleeding (about 1.2 ml blood/time point) was performed from a peripheral vessel from restrained, non-sedated animals at each time point into a commercially available tube containing Potassium (K2) EDTA*2H2O (0.85-1.15 mg) on wet ice and processed for plasma. Samples were centrifuged (3,000×g for 10 minutes at 2 to 8° C.) immediately after collection. 0.1 mL plasma was transferred into labelled polypropylene micro-centrifuge tubes. 5-fold of the precipitant including internal standard 100 ng/mL Labetalol & 100 ng/mL dexamethasone & 100 ng/mL tolbutamide & 100 ng/mL Verapamil & 100 ng/mL Glyburide & 100 ng/mL Celecoxib in MeOH was immediately added into the plasma, mixed well and centrifuged at 12,000 rpm for 10 minutes at 2 to 8° C. Samples of supernatant were transferred into the pre-labeled polypropylene microcentrifuge tubes, and frozen over dry ice. The samples were stored at −60° C. or below until LC-MS/MS analysis. An aliquot of 40 μL calibration standard, quality control, single blank and double blank samples were added to the 1.5 mL tube. Each sample (except the double blank) was quenched with 200 μL IS1 respectively (double blank sample was quenched with 200 μL MeOH with 0.5% tritonX-100), and then the mixture was vortex-mixed well (at least 15 s) with vortexer and centrifuged for 15 min at 12000 g, 4° C. A 10 μL supernatant was injected for LC-MS/MS analysis using an Orbitrap Q Exactive in positive ion mode to determine the concentrations of analyte. Plasma concentration versus time data were analyzed by non-compartmental approaches using the Phoenix WinNonlin 6.3 software program. C0, CI, Vdss, T½, AUC(0-last), AUC(0-inf), MRT(0-last), MRT(0-inf) and graphs of plasma concentration versus time profile were reported.
compound,measurement,setting,value
"I: A[hArg]DC[Hyp]LVNPLCLEP[d1Nal]WTC-NH2 / II: Ac-C[tBuAla]PE[dK]PYCFADPY[Nle]CA-NH2 / III: Ac-C[tBuAla]PE[dK]PYCFADPY[Nle]CA-NH2 (linker I:4-I:11-I:18, II:1-II:8-II:15, III:1-III:8-III:15 via TATA; linker I:N-II:5-III:5 via X1) [BCY13272]",off rate (koff) from immobilized CD137,[1],very slow
same,"affinity to immobilized CD137 (human), in words",[1],high affinity
same,clearance,"[2]; male, CD-1, mouse, plasma, 5.5 mg/kg IV, n=3, read-out: Clearance",7.5 mL/min/kg
same,half-life,"[2]; male, CD-1, mouse, plasma, 5.5 mg/kg IV, n=3, read-out: terminal plasma half life (converted)",2.9 h
same,Vd,"[2]; male, CD-1, mouse, plasma, 5.5 mg/kg IV, n=3, read-out: volume of distribution (Vdss)",1.1 L/kg
same,clearance,"[3]; 9.2 mg/kg IV infusion (15 min), read-out: clearance",4.1 mL/min/kg
same,Vd,"[3]; 9.2 mg/kg IV infusion (15 min), read-out: volume of distribution at steady state (Vdss)",0.82 L/kg
same,half-life,"[3]; IV infusion (15 min), 9.2 mg/kg, read-out: T1/2 (converted)",8.9 h
same,half-life,"[3]; IV infusion (15 min), dose 9.2 mg/kg, 8.9 mg/kg, read-out: terminal half life (converted)",8.9 h
CCCC[C@@H]1NC(=O)[C@H](Cc2ccc(O)cc2)NC(=O)[C@@H]2CCCN2C(=O)[C@H](CC(=O)O)NC(=O)[C@H](C)NC(=O)[C@H](Cc2ccccc2)NC(=O)[C@@H]2CSCCC(=O)N3CN(CN(C3)C(=O)CCSC[C@@H](C(=O)N[C@@H](C)C(N)=O)NC1=O)C(=O)CCSC[C@H](NC(C)=O)C(=O)N[C@@H](CC(C)(C)C)C(=O)N1CCC[C@H]1C(=O)N[C@@H](CCC(=O)O)C(=O)N[C@H](CCCCNC(=O)CCc1cn(CCOCCOCCOCCN(CCOCCOCCOCCC(=O)N[C@H]3CSCCC(=O)N4CN5CN(C4)C(=O)CCSC[C@H](NC(=O)[C@@H](CC(=O)O)NC(=O)[C@H](Cc4cccc6ccccc46)NC(=O)[C@@H]4CCCN4C3=O)C(=O)N[C@@H](CCSC)C(=O)N[C@@H](CCCCNC(=N)N)C(=O)N[C@@H](CC(=O)O)C(=O)N[C@@H](Cc3c[nH]c4ccccc34)C(=O)N[C@@H](CO)C(=O)N[C@@H]([C@@H](C)O)C(=O)N3CCC[C@H]3C(=O)N3C[C@H](O)C[C@H]3C(=O)N[C@@H](Cc3c[nH]c4ccccc34)C(=O)N[C@H](C(N)=O)CSCCC5=O)CCOCCOCCOCCn3cc(CCC(=O)NCCCC[C@H]4NC(=O)[C@H](CCC(=O)O)NC(=O)[C@@H]5CCCN5C(=O)[C@H](CC(C)(C)C)NC(=O)[C@@H](NC(C)=O)CSCCC(=O)N5CN6CN(C5)C(=O)CCSC[C@H](NC(=O)[C@H](Cc5ccc(O)cc5)NC(=O)[C@@H]5CCCN5C4=O)C(=O)N[C@@H](Cc4ccccc4)C(=O)N[C@@H](C)C(=O)N[C@@H](CC(=O)O)C(=O)N4CCC[C@H]4C(=O)N[C@@H](Cc4ccc(O)cc4)C(=O)N[C@@H](CCCC)C(=O)N[C@H](C(=O)N[C@@H](C)C(N)=O)CSCCC6=O)nn3)nn1)C(=O)N1CCC[C@H]1C(=O)N[C@@H](Cc1ccc(O)cc1)C(=O)N2 [BCY11863],off rate (koff) from immobilized CD137,[1],extremely slow; also recorded: very slow
same,"affinity to immobilized CD137 (human), in words",[1],high affinity
same,bioavailability from IP dosing,[2]; IP dosing,high
same,clearance (in words),[2]; IV study,low clearance molecule
same,volume of distribution (in words),[2]; IV study,volume of distribution larger than plasma volume
same,half-life,"[2]; male, CD-1, mouse, plasma, 15 mg/kg, mice, after IP injection, read-out: circulating plasma half-life (converted)",2.5 h
same,clearance,"[2]; male, mouse, plasma, CD-1 mice, 0.96 mg/kg IV Bolus, read-out: Clp",21 mL/min/kg
same,half-life,"[2]; male, mouse, plasma, CD-1 mice, 0.96 mg/kg IV Bolus, read-out: T½ (converted)",1.7 h
same,Vd,"[2]; male, mouse, plasma, CD-1 mice, 0.96 mg/kg IV Bolus, read-out: Vdss",2.9 L/kg
same,clearance,"[2]; male, mouse, plasma, CD-1 mice, 5.6 mg/kg IV Bolus, read-out: Clp",9.7 mL/min/kg
same,half-life,"[2]; male, mouse, plasma, CD-1 mice, 5.6 mg/kg IV Bolus, read-out: T½ (converted)",2.6 h
same,Vd,"[2]; male, mouse, plasma, CD-1 mice, 5.6 mg/kg IV Bolus, read-out: Vdss",1.6 L/kg
same,clearance,"[2]; male, mouse, plasma, CD-1 mice, 12 mg/kg IV Bolus, read-out: Clp",17 mL/min/kg
same,half-life,"[2]; male, mouse, plasma, CD-1 mice, 12 mg/kg IV Bolus, read-out: T½ (converted)",2.6 h
same,Vd,"[2]; male, mouse, plasma, CD-1 mice, 12 mg/kg IV Bolus, read-out: Vdss",2.5 L/kg
same,bioavailability,"[2]; male, mouse, plasma, CD-1 mice, 15.5 mg/kg IP",100%
same,half-life,"[2]; male, mouse, plasma, CD-1 mice, 15.5 mg/kg IP, read-out: T½ (converted)",2.5 h
same,half-life,"[2]; male, mouse, plasma, CD-1 mice, 32 mg/kg IV Bolus, read-out: T½ (converted)",2.4 h
same,Vd,"[2]; male, mouse, plasma, CD-1 mice, 32 mg/kg IV Bolus, read-out: Vdss",2.1 L/kg
same,Vd,"[3]; 0.93 mg/kg IV infusion (30 min), read-out: Vdss",0.62 L/kg
same,clearance,"[3]; 0.97 mg/kg IV infusion (15 min), read-out: Clp",4.8 mL/min/kg
same,half-life,"[3]; 0.97 mg/kg IV infusion (15 min), read-out: T1/2 (converted)",4.5 h
same,Vd,"[3]; 0.97 mg/kg IV infusion (15 min), read-out: Vdss",0.91 L/kg
same,Vd,"[3]; 1 mg/kg IV infusion, n=2, read-out: volume of distribution at steady state (Vdss)",0.62 L/kg
same,clearance,"[3]; 9.4 mg/kg IV infusion (15 min), read-out: Clp",3.9 mL/min/kg
same,half-life,"[3]; 9.4 mg/kg IV infusion (15 min), read-out: T1/2 (converted)",8.9 h
same,Vd,"[3]; 9.4 mg/kg IV infusion (15 min), read-out: Vdss",1.1 L/kg
